Experimental data reported in patent US20250179059A1 (The Regents of the University of California, priority 2021, published 2025).

Tests used:
[1] = target: T1, human BRD4 bromodomain II (Homo sapiens, UniProt O60885); test: Bromodomain binding assay (AlphaScreen), BRD4 BDII; conditions: AlphaScreen assay, Table C2; read-out: BRD4 BDII IC50
T1 construct: human BRD4 bromodomain II [based on Genbank NM_058243, residues 349-460]; host or cells: E. coli
In short: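 AlphaScreen competition: His6-BRD4 BDI (aa 44-170) or BDII (aa 349-460) vs biotin-H4(1-21) K5/K8/K12/K16Ac peptide; Ni-chelate acceptor/streptavidin donor beads. HEPES pH 7.5, NaCl, CHAPS, BSA, 1% DMSO; RT. 10-pt 3-fold titration, % peptide binding fitted → IC50.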

[2] = tested on: human SKM-1 acute myeloid leukemia cells; test: SKM-1 antiproliferation cell-based assay (ATPlite); conditions: Homo sapiens, SKM-1, 96 h, SKM-1 antiproliferation assay, 4 days, Table C2
In short: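 Log-phase cells in RPMI 1640/15% FBS were seeded at 34722 cells/mL and exposed for 4 days to nine-concentration DMSO serial dilutions in triplicate. Viability was read as ATP luminescence (ATPlite 1step), and IC50 values came from variable-slope non-linear regression.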

| IC50 [1] [nM] | GI50 [2] [nM] | SMILES |
| --- | --- | --- |
| 0.01 to 1 | 0.3 to 30 | CN[C@H]1CCN(c2cc(-c3cc(F)cc(-c4ccc(-n5ccn(C)c5=O)c(Cl)c4)c3O)ccn2)C1 [Example 429] |
| 0.01 to 1 | 0.3 to 30 | CN1CCN(c2cc(-c3cc(F)cc(-c4ccc(-n5ccn(C)c5=O)c(Cl)c4)c3O)ccn2)CC1 [Example 430, 1-(3-chloro-5′-fluoro-2′-hydroxy-3′-(2-(4-methylpiperazin-1-yl)pyridin-4-yl)-[1,1′-biphenyl]-4-yl)-3-methyl-1H-imidazol-2(3H)-one] |
| 1 to 10 | 0.3 to 30 | CC(=O)Nc1cc(-c2cc(F)cc(-c3ccc(N4CCN(C)C4=O)c(Cl)c3)c2O)cc(N2CCNCC2)n1 [Example 433, N-(4-(3′-chloro-5-fluoro-2-hydroxy-4′-(3-methyl-2-oxoimidazolidin-1-yl)-[1,1′-biphenyl]-3-yl)-6-(piperazin-1-yl)pyridin-2-yl)acetamide] |
| 0.01 to 1 | 30 to 300 | Cn1ccn(-c2ccc(-c3cc(F)cc(-c4cc(NS(C)(=O)=O)nc(N5CCNCC5)c4)c3O)cc2Cl)c1=O [Example 439, N-(4-(3′-chloro-5-fluoro-2-hydroxy-4′-(3-methyl-2-oxo-2,3-dihydro-1H-imidazol-1-yl)-[1,1′-biphenyl]-3-yl)-6-(piperazin-1-yl)pyridin-2-yl)methanesulfonamide] |
| 0.01 to 1 | 30 to 300 | CN[C@H]1CCCN(c2cc(-c3cc(F)cc(-c4ccc(-n5ccn(C)c5=O)c(Cl)c4)c3O)ccn2)C1 [Example 440, (S)-1-(3-chloro-5′-fluoro-2′-hydroxy-3′-(2-(3-(methylamino)piperidin-1-yl)pyridin-4-yl)-[1,1′-biphenyl]-4-yl)-3-methyl-1H-imidazol-2(3H)-one] |
| 1 to 10 | 300 to 3000 | Cn1ccn(-c2ccc(-c3cc(F)cc(-c4ccc(OC5CCNCC5)nc4)c3O)cc2Cl)c1=O [Example 445, 1-(3-chloro-5′-fluoro-2′-hydroxy-3′-(6-(piperidin-4-yloxy)pyridin-3-yl)-[1,1′-biphenyl]-4-yl)-3-methyl-1H-imidazol-2(3H)-one] |
| 10 to 100 | 300 to 3000 | Cn1ccn(-c2c(Cl)cc(-c3cc(F)cc(-c4ccnc(N5CCNCC5)c4)c3O)cc2C#N)c1=O [Example 448, 5-chloro-5′-fluoro-2′-hydroxy-4-(3-methyl-2-oxo-2,3-dihydro-1H-imidazol-1-yl)-3′-(2-(piperazin-1-yl)pyridin-4-yl)-[1,1′-biphenyl]-3-carbonitrile] |
| 1 to 10 | 30 to 300 | CN[C@H]1CCCN(c2cc(-c3cc(F)cc(-c4ccc(N5CCN(C)C5=O)c(Cl)c4)c3O)ccn2)C1 [Example 450] |
| 1 to 10 | 300 to 3000 | Cn1ccn(-c2ccc(-c3cc(F)cc(-c4ccnc(N5CCNC(C(F)(F)F)C5)c4)c3O)cc2Cl)c1=O (stereo not shown) [Example 454, 1-(3-chloro-5′-fluoro-2′-hydroxy-3′-(2-(3-(trifluoromethyl)piperazin-1-yl)pyridin-4-yl)-[1,1′-biphenyl]-4-yl)-3-methyl-1H-imidazol-2(3H)-one] |

The next lines start with the molecule.

| SMILES | IC50 [1] [nM] | GI50 [2] [nM] |
| --- | --- | --- |
| Cn1cc(-c2cc(F)cc(-c3ccc(-n4ccn(C)c4=O)c(Cl)c3)c2O)cc(N2CCC(N)CC2)c1=O [Example 427, 3-(4-aminopiperidin-1-yl)-5-(3′-chloro-5-fluoro-2-hydroxy-4′-(3-methyl-2-oxo-2,3-dihydro-1H-imidazol-1-yl)-[1,1′-biphenyl]-3-yl)-1-methylpyridin-2(1H)-one] | 1 to 10 | 300 to 3000 |
| CN1CCN(c2ccc(-c3cc(F)cc(-c4cnc(CCO)c(N5CCNCC5)c4)c3O)cc2Cl)C1=O [Example 428, 1-(3-chloro-5′-fluoro-2′-hydroxy-3′-(6-(2-hydroxyethyl)-5-(piperazin-1-yl)pyridin-3-yl)-[1,1′-biphenyl]-4-yl)-3-methylimidazolidin-2-one] | 1 to 10 | 30 to 300 |
| O=c1[nH]c2ccc(-c3cc(F)cc(-c4ccnc(N5CCNCC5)c4)c3O)cc2[nH]1 [Example 431, 5-(5-fluoro-2-hydroxy-3-(2-(piperazin-1-yl)pyridin-4-yl)phenyl)-1H-benzo[d]imidazol-2(3H)-one] | > 100 | ≥ 3000 |
| C[C@@H]1CN(c2cc(-c3cc(F)cc(-c4ccc(-n5ccn(C)c5=O)c(Cl)c4)c3O)cn(C)c2=O)CCN1 [Example 432, (R)-5-(3′-chloro-5-fluoro-2-hydroxy-4′-(3-methyl-2-oxo-2,3-dihydro-1H-imidazol-1-yl)-[1,1′-biphenyl]-3-yl)-1-methyl-3-(3-methylpiperazin-1-yl)pyridin-2(1H)-one] | 0.01 to 1 | 0.3 to 30 |
| CC(C)Oc1cc(-c2cc(F)cc(-c3ccnc(N4CCNCC4)c3)c2O)cc(Cl)c1-n1ccn(C)c1=O [Example 434, 1-(3-chloro-5′-fluoro-2′-hydroxy-5-isopropoxy-3′-(2-(piperazin-1-yl)pyridin-4-yl)-[1,1′-biphenyl]-4-yl)-3-methyl-1H-imidazol-2(3H)-one] | 10 to 100 | 300 to 3000 |
| Cn1ccn(-c2c(F)cc(-c3cc(F)cc(-c4ccnc(N5CCNCC5)c4)c3O)cc2Cl)c1=O [Example 436, 1-(3-chloro-5,5′-difluoro-2′-hydroxy-3′-(2-(piperazin-1-yl)pyridin-4-yl)-[1,1′-biphenyl]-4-yl)-^3-methyl-1H-imidazol-2(3H)-one] | 1 to 10 | 30 to 300 |
| Cn1cc(-c2cc(F)cc(-c3ccc(-n4ccn(C)c4=O)c(Cl)c3)c2O)cc(N2CCNCC2)c1=O [Example 437, 5-(3′-chloro-5-fluoro-2-hydroxy-4′-(3-methyl-2-oxo-2,3-dihydro-1H-imidazol-1-yl)-[1,1′-biphenyl]-3-yl)-1-methyl-3-(piperazin-1-yl)pyridin-2(1H)-one] | 1 to 10 | 0.3 to 30 |
| CN[C@H]1CCN(c2cc(-c3cc(F)cc(-c4ccc(N5CCN(C)C5=O)c(Cl)c4)c3O)ccn2)C1 [Example 438, (S)-1-(3-chloro-5′-fluoro-2′-hydroxy-3′-(2-(3-(methylamino)pyrrolidin-1-yl)pyridin-4-yl)-[1,1′-biphenyl]-4-yl)-3-methylimidazolidin-2-one] | 1 to 10 | 30 to 300 |
| CN1CCN(c2cc(-c3cc(F)cc(-c4ccc(N5CCN(C)C5=O)c(Cl)c4)c3O)ccn2)CC1 [Example 441, 1-(3-chloro-5′-fluoro-2′-hydroxy-3′-(2-(4-methylpiperazin-1-yl)pyridin-4-yl)-[1,1′-biphenyl]-4-yl)-3-methylimidazolidin-2-one] | 1 to 10 | 30 to 300 |
| CC(=O)Nc1cc(-c2cc(F)cc(-c3ccc(-n4ccn(C)c4=O)c(Cl)c3)c2O)cc(N2CCNCC2)n1 [Example 442, N-(4-(3′-chloro-5-fluoro-2-hydroxy-4′-(3-methyl-2-oxo-2,3-dihydro-1H-imidazol-1-yl)-[1,1′-biphenyl]-3-yl)-6-(piperazin-1-yl)pyridin-2-yl)acetamide] | 0.01 to 1 | 0.3 to 30 |
| CN1CCN(c2ccc(-c3cc(F)cc(-c4ccnc(N5CCNC(C(F)(F)F)C5)c4)c3O)cc2Cl)C1=O (stereo not shown) [Example 444, 1-(3-chloro-5′-fluoro-2′-hydroxy-3′-(2-(3-(trifluoromethyl)piperazin-1-yl)pyridin-4-yl)-[1,1′-biphenyl]-4-yl)-3-methylimidazolidin-2-one] | 10 to 100 | 300 to 3000 |
| CN1CCN(c2ccc(-c3cc(F)cc(-c4ccnc(N5CCNCC5=O)c4)c3O)cc2Cl)C1=O [Example 449, 1-(4-(3′-chloro-5-fluoro-2-hydroxy-4′-(3-methyl-2-oxoimidazolidin-1-yl)-[1,1′-biphenyl]-3-yl)pyridin-2-yl)piperazin-2-one] | 1 to 10 | 300 to 3000 |
| [2H]C([2H])([2H])n1ccn(-c2ccc(-c3cc(F)cc(-c4ccnc(N5CC[C@H](N)C5)c4)c3O)cc2Cl)c1=O [Example 451, (S)-1-(3′-(2-(3-aminopyrrolidin-1-yl)pyridin-4-yl)-3-chloro-5′-fluoro-2′-hydroxy-[1,1′-biphenyl]-4-yl)-3-deuteromethyl-1H-imidazol-2(3H)-one] | 0.01 to 1 | 0.3 to 30 |
| [2H]C([2H])([2H])n1ccn(-c2ccc(-c3cc(F)cc(-c4ccnc(N5CCC[C@H](N)C5)c4)c3O)cc2Cl)c1=O [Example 452, (S)-1-(3′-(2-(3-aminopiperidin-1-yl)pyridin-4-yl)-3-chloro-5′-fluoro-2′-hydroxy-[1,1′-biphenyl]-4-yl)-3-deuteromethyl-1H-imidazol-2(3H)-one] | 0.01 to 1 | 0.3 to 30 |
| [2H]C([2H])([2H])n1ccn(-c2ccc(-c3cc(F)cc(-c4ccnc(N5CCN[C@H](C)C5)c4)c3O)cc2Cl)c1=O [Example 453, (R)-1-(3-chloro-5′-fluoro-2′-hydroxy-3′-(2-(3-methylpiperazin-1-yl)pyridin-4-yl)-[1,1′-biphenyl]-4-yl)-3-deuteromethyl-1H-imidazol-2(3H)-one] | 0.01 to 1 | 0.3 to 30 |
| Cn1ccn(-c2ccc(-c3cc(F)cc(-c4ccnc(N5CC6(CNC6)C5)c4)c3O)cc2Cl)c1=O [Example 455, 1-(3′-(2-(2,6-diazaspiro[3.3]heptan-2-yl)pyridin-4-yl)-3-chloro-5′-fluoro-2′-hydroxy-[1,1′-biphenyl]-4-yl)-3-methyl-1H-imidazol-2(3H)-one] | 1 to 10 | 30 to 300 |
| [2H]C([2H])([2H])n1ccn(-c2ccc(-c3cc(F)cc(-c4ccnc(N5CCC[C@H](NC)C5)c4)c3O)cc2Cl)c1=O [Example 456, (S)-1-(3-chloro-5′-fluoro-2′-hydroxy-3′-(2-(3-(methylamrno)piperidin-1-yl)pyridin-4-yl)-[1,1′-biphenyl]-4-yl)-3-deuteromethyl-1H-imidazol-2(3H)-one] | 0.01 to 1 | 0.3 to 30 |
